Experimental data reported in US20250214942A1, “INHIBITORS OF RECEPTOR INTERACTING PROTEIN KINASE I FOR THE TREATMENT OF DISEASE” (Board of Regents, The University of Texas System, priority 2019, published 2025).

Experiments:
RIPK1 = RIPK1 (Homo sapiens (Human), UniProt Q13546); assay: ADP-Glo kinase assay (RIPK1 activity, conversion of ATP to ADP); assay type: biochemical; conditions: for IC50: 5 nM RIPK1, 50 μM ATP, 6 h reaction, read-out: RIPK1 Enzyme Avg IC50
In short: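 ADP-Glo luminescence of ATP-to-ADP conversion by 5 nM RIPK1 with 50 μM ATP (final), 6 h reaction after 10 min compound preincubation at rt. Buffer was 50 mM HEPES pH 7.5, 30 mM MgCl2, 0.05% BSA, 0.02% CHAPS. IC50 from four-parameter logistic fit.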

[1] = test system: human monocytic cell line U937; assay: Human U937 cellular necroptosis assay (TNFalpha + z-VAD-FMK, Cell Titer-Glo viability); assay type: cell-based; conditions: Homo sapiens, U-937, 22 h, U937 cells, 25 ng/mL human TNFalpha + 25 μM z-VAD-FMK, read-out: hU937 Avg IC50
In short: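 Cells resuspended in phenol red-free RPMI with 10% FBS, stimulated with 25 ng/mL human TNFalpha plus 25 μM z-VAD-FMK, then given serially diluted compound for 22 h at 37° C, 5% CO2. Viability by Cell Titer-Glo 2.0 luminescence; IC50 from four-parameter logistic fit, averaged across runs.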

RIPK1, sequence (Q13546 1-327): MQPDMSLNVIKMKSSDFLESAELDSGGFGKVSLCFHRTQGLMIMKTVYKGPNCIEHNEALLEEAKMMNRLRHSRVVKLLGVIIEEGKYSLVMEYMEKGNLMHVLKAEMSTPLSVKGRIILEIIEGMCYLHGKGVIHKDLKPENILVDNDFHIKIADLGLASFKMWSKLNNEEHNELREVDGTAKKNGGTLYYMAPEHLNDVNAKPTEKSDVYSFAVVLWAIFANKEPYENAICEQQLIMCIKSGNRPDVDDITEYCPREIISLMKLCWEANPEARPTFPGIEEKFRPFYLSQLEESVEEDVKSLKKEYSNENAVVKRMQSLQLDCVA

## N#Cc1ccc2c(cnn2CC23CC(C(=O)N4N=CCC4c4ccccc4)(C2)C3)c1 (stereo not drawn) [Example 52, 1-((3-(5-phenyl-4,5-dihydro-1H-pyrazole-1-carbonyl)-bicyclo[1.1.1]pentan-1-yl)methyl)-1H-indazole-5-carbonitrile]
RIPK1
  IC50: 24 nM
[1]
  IC50: 16 nM

## N#Cc1ccc2c(cnn2CC23CC(C(=O)N4CCC4c4cccc(Cl)c4Cl)(C2)C3)c1 (stereo not drawn) [Example 260, 1-((3-(2-(2,3-dichlorophenyl)-azetidine-1-carbonyl)bicyclo-[1.1.1]pentan-1-yl)methyl)-1H-indazole-5-carbonitrile]
RIPK1
  IC50: 528 nM
[1]
  IC50: 5600 nM

## N#Cc1ccc(OCC23CC(C(=O)N4N=CCC4c4cc(F)cc(F)c4)(C2)C3)nc1 (stereo not drawn) [Example 320, 6-((3-(5-(3,5-difluorophenyl)-4,5-dihydro-1H-pyrazole-1-carbonyl)bicyclo[1.1.1]pentan-1-yl)methoxy)nicotinonitrile]
RIPK1
  IC50: 19 nM
[1]
  IC50: 30 nM

## COc1ccn(CC23CC(C(=O)N4N=CCC4c4cc(F)cc(F)c4)(C2)C3)n1 (stereo not drawn) [Example 164, (5-(3,5-difluorophenyl)-4,5-dihydro-1H-pyrazol-1-yl)(3-((3-methoxy-1H-pyrazol-1-yl)methyl)bicyclo[1.1.1]-pentan-1-yl)methanone]
RIPK1
  IC50: 57 nM
[1]
  IC50: 214 nM

## Cc1cc(F)c([C@@H]2CC=NN2C(=O)C23CC(COc4cnc(C#N)cn4)(C2)C3)cc1F [Example 197, (S)-5-((3-(5-(2,5-difluoro-4-methylphenyl)-4,5-dihydro-1H-pyrazole-1-carbonyl)bicyclo[1.1.1]pentan-1-yl)methoxy)pyrazine-2-carbonitrile]
RIPK1; enantiomers separated by SFC, assay not named
  observed potency relative to the other enantiomer: more potent isomer
[1]
  IC50: 0.77 nM

## O=C(N1CC(F)CC1c1cccc(F)c1)C12CC(Cn3cc4cc(F)ccc4n3)(C1)C2 (stereo not drawn) [Example 106, (4-fluoro-2-(3-fluorophenyl)-pyrrolidin-1-yl)(3-((5-fluoro-2H-indazol-2-yl)methyl)-bicyclo[1.1.1]pentan-1-yl)methanone]
RIPK1
  IC50: 371 nM
[1]
  IC50: 1470 nM

## O=C(N1N=CCC1c1cc(F)cc(F)c1)C12CC(COc3ncc(F)cn3)(C1)C2 (stereo not drawn) [Example 325, (5-(3,5-difluorophenyl)-4,5-dihydro-1H-pyrazol-1-yl)(3-(((5-fluoropyrimidin-2-yl)-oxy)methyl)bicyclo[1.1.1]-pentan-1-yl)methanone]
RIPK1
  IC50: 21 nM
[1]
  IC50: 193 nM

## O=C(N1N=CCC1c1cc(F)cc(F)c1)C12CC(Cn3nc4ccc(F)cc4n3)(C1)C2 (stereo not drawn) [Example 85, (5-(3,5-difluorophenyl)-4,5-dihydro-1H-pyrazol-1-yl)(3-((5-fluoro-2H-benzo[d]-[1,2,3]triazol-2-yl)methyl)-bicyclo[1.1.1]pentan-1-yl)-methanone]
RIPK1
  IC50: 18 nM
[1]
  IC50: 24 nM

## O=C(N1CC(F)CC1c1cccc(F)c1)C12CC(COc3nccc(Cl)n3)(C1)C2 (stereo not drawn) [Example 101, (3-(((4-chloropyrimidin-2-yl)oxy)methyl)bicyclo[1.1.1]-pentan-1-yl)(4-fluoro-2-(3-fluorophenyl)pyrrolidin-1-yl)methanone]
RIPK1
  IC50: 486 nM
[1]
  IC50: 1340 nM

## O=C(N1N=CCC1c1cc(F)cc(F)c1)C12CC(Cn3cc4ccncc4n3)(C1)C2 (stereo not drawn) [Example 88, (3-((2H-pyrazolo[3,4-c]-pyridin-2-yl)methyl)bicyclo-[1.1.1]pentan-1-yl)(5-(3,5-difluorophenyl)-4,5-dihydro-1H-pyrazol-1-yl)methanone]
RIPK1
  IC50: 24 nM
[1]
  IC50: 94 nM

## Cc1nn(CC23CC(C(=O)N4N=CCC4c4cncc(F)c4)(C2)C3)c2ccc(C#N)cc12 (stereo not drawn) [Example 130, 1-((3-(5-(5-fluoropyridin-3-yl)-4,5-dihydro-1H-pyrazole-1-carbonyl)bicyclo[1.1.1]-pentan-1-yl)methyl)-3-mcthyl-1H-indazole-5-carbonitrile]
RIPK1
  IC50: 238 nM
[1]
  IC50: 1240 nM

## Cc1ccccc1OCC12CC(C(=O)N3N=CCC3c3cc(F)cc(F)c3)(C1)C2 (stereo not drawn) [Example 337, (5-(3,5-difluorophenyl)-4,5-dihydro-1H-pyrazol-1-yl)(3-((o-tolyloxy)methyl)bicyclo-[1.1.1]pentan-1-yl)methanone]
RIPK1
  IC50: 24 nM
[1]
  IC50: 140 nM

## O=C(N1N=CCC1c1cc(F)cc(F)c1)C12CC(CCl)(C1)C2 (stereo not drawn) [Example 11, (3-(Chloromethyl)bicyclo[1.1.1]pentan-1-yl)(5-(3,5-difluorophenyl)-4,5-dihydro-1H-pyrazol-1-yl)methanone]
RIPK1
  IC50: 20 nM
[1]
  IC50: 18 nM

## Cc1c2cc(C#N)ccc2nn1CC12CC(C(=O)N3N=CCC3c3cncc(F)c3)(C1)C2 (stereo not drawn) [Example 129, 2-((3-(5-(5-fluoropyridin-3-yl)-4,5-dihydro-1H-pyrazole-1-carbonyl)bicyclo[1.1.1]-pentan-1-yl)methyl)-3-methyl-2H-indazole-5-carbonitrile]
RIPK1
  IC50: 515 nM
[1]
  IC50: 3860 nM

## O=C(N1N=CCC1c1cc(F)cc(F)c1)C12CC(Cn3cc(-c4ccccn4)cn3)(C1)C2 (stereo not drawn) [Example 111, (5-(3,5-difluorophenyl)-4,5-dihydro-1H-pyrazol-1-yl)(3-((4-(pyridin-2-yl)-1H-pyrazol-1-yl)methyl)-bicyclo[1.1.1]pentan-1-yl)methanone]
RIPK1
  IC50: 43 nM
[1]
  IC50: 249 nM
